How the values were obtained:
[1] = test system: cAMP; assay: cAMP levels in 3T3-L1 adipocytes (ELISA, biosensor, CRE-Luc reporter); format: cell-based
Protocol: 3T3-L1 cells were transduced with viral particles ([…]) in 24 well plates. Media was replaced after overnight incubation. 3-4 days after AAV infection, cells were treated as described for lipolysis assay. For cAMP analysis by biosensors, Downward Green cADDis cAMP Sensor (D0200G) and control mNeon Green (F0500G) produced in BacMam system was purchased from Montana Molecular. Brightfield and fluorescence images were taken every 10-20 min in I IncuCyte® Live-cell analysis system (Sartorius) and images were analyzed by IncuCyte® Analysis Software. High-resolution live cell imaging was performed with LSM 880 Airyscan microscope at 40× objective.

[2] = test system: HSL phosphorylation at S660; assay: Western blot of pHSL-S660 in gWAT after injection; format: in vivo, mouse; conditions: 30 min after FGF1 injection 0.5 mg/kg
Protocol: Tissues were lysed in cold lysis buffer (50 mM Tris, pH 7.5, 150 mM NaCl, 1% NP40, 0.5% NaDoc, 0.1% SDS, 5% glycerol, 1 mM EDTA, protease and phosphatase inhibitors (complete and PhosSTOP (Roche)) by homogenization by bead-beater for 30 s. Samples were cleared for 10 min at 18,000 g at 4° C. and the middle clear phase was transferred to new tubes. A second 30 min centrifugation was performed and the middle clear phase was transferred to new tubes. Five ul protein extract was used for BCA assay to determine protein concentration. Samples were boiled in Laemmli buffer. SDS-PAGE and blotting were performed using gradient gels and Trans-Blot Turbo Transfer System (Bio-Rad). Antibodies used were PDE4D (12918-1-AP, Proteintech), pHSL-660 (4126S, Cell signaling), HSL (4107S, Cell Signaling), tubulin (CP06, Millipore Sigma), and GFP (A01388, GenScript). PDE4D3-pS44 phospho-specific antibody was generated using PDE4D3-S44 FRRHpSWISFDVDNGTSAGR peptide (SEQ ID NO: 20) (Mackenzie et al., 2002) by Pocono Rabbit Farm, using 70-day rabbit antibody production protocol and purified via affinity purification. Primary antibodies were incubated for 2 h at room temperature (RT) or overnight (ON) at 4° C. Blots were developed using SuperSignal West Pico PLUS Chemiluminescent Substrate (ThermoFisher Scientific) and imaged with BioRad GelDoc system.

[3] = test system: 3T3-L1 adipocytes; assay: In vitro lipolysis assay (FFA release), 3T3-L1 adipocytes; format: cell-based
Protocol: Differentiation of pre-adipocytes were based on previously published methods (Bunnell et al., 2008). Briefly, 3T3-L1 pre-adipocytes were grown to full confluence in DMEM, 10% FBS (GemCell, 100-500), 10 mM HEPES and antibiotic-antimycotic (full growth media). 2 days later, differentiation was induced by replacing the media with 1 μM dexamethasone, 1 μM rosiglitazone, 500 μM IBMX and 5 μg/ml insulin in full growth media 2 days later after reaching full confluence. Two days later media was replaced by differentiation induction media with 1 μM rosiglitazone and 5 μg/ml insulin for 4 days with media change after 2 days. Cells were kept in maintenance medium (full growth media with 5 μg/ml insulin) for 4 more days for full differentiation. For differentiation of mouse SVF derived adipocytes, the protocol was same except DMEM/F12 (10565018, ThermoFisher) was used as base media and initial differentiation induction media was kept for 3 days. For differentiation of human subcutaneous adipocytes, protocol and media from the manufacturer (C-12735, C-39437, Promocell) were used. Dexamethasone was omitted from the media in the last 3 days before performing experiments. Both mouse and human SVF derived adipocytes were differentiated in collagen coated plates (A1142802, ThermoFisher).
For in vitro lipolysis assay, cells were washed with PBS and media were changed to full growth media 1 day before experiment. Cells were serum starved for 2 h and placed in KRBH buffer (30 mM HEPES, 120 mM NaCl, 4 mM KH2PO4, 1 mM MgSO4, 0.75 mM CaCl2), and 10 mM NaHCO3) with 2% fatty acid free BSA and 5 mM glucose. FGF1 was added 10 min before induction of lipolysis with 100 nM isoprotenol (ISO). Inhibitors were added 30 min prior to FGF1 treatment unless otherwise noted. Media were collected and cells were lysed in protein extraction buffer. FFAs were measured in the media using a commercial kit (Wako-NEFAHR2) and normalized to protein concentration. For ex vivo lipolysis, the assay was modified from a published protocol (Funicello et al., 2007). Briefly, approximately 0.1 gram of adipose tissue was excised, weighed and kept in cold PBS until treatment and control tissues were collected. Tissues were cut into small pieces and incubated in same KRBH buffer as described above for 4 h. FFAs were measured and normalized by the explant weights.

[4] = test system: hepatic β-oxidation; assay: β-oxidation assay of hepatic mitochondria; format: in vivo, mouse; conditions: ob/ob mice 14 h after FGF1 injection
Protocol: FIGS. 8A-8E: FGF1 decreases hepatic glucose production via controlling metabolic flux to gluconeogenesis. (FIG. 8A) Pyruvate tolerance test (PTT) (left panel) and glycerol tolerance test (Glycerol TT) of overnight-fasted DIO mice 2 h after vehicle (n=6) or FGF1 (n=7) injection (0.5 mg/kg). Data are represented as mean±SEM (*p<0.05, **p<0.01, ***p<0.001). (FIG. 8B) Schematic diagram showing the steps in hepatic glucose production. […] (FIG. 8C) Relative levels of the key metabolites involved in the citric acid cycle as measured by targeted metabolomic profiling. Data are represented as mean±SEM (vehicle n=5; FGF1 n=6). (FIG. 8D) Pyruvate carboxylase, PEPCK and G6Pase levels in livers of overnight fasted ob/ob mice 2 hours after injection of vehicle or FGF1, as measured by Western blot. Protein levels are normalized to actin for quantification (n=6/arm). (FIG. 8E) β-oxidation assay of hepatic mitochondria from ob/ob mice 14 h after Vehicle (PBS) or FGF1 injection. Mitochondria were incubated with BSA-conjugated ^14C palmitate, and released ^14C CO2 was measured by scintillation counting. Data are represented as mean±SEM (n=5/arm).

Substance: FGF1: Recombinant fibroblast growth factor 1 protein, dissolved in PBS, injected subcutaneously
- isoproterenol-induced increases in cAMP and cAMP/PKA signaling ([1]; FGF1 pretreatment, ISO 100 nM): attenuated isoproterenol-induced increases in cAMP
- FGF1-induced attenuation of isoproterenol-driven increase in cAMP with PDE4 inhibitor ([1]; live 3T3-L1 cells, cAMP biosensor, roflumilast 2 μM): lost
- pHSL levels in gWAT [2]: decreased
- FGF1 suppression of lipolysis under FGFR1 inhibition ([3]; FGF1 100 ng/ml with FGFR1 inhibitor PD 173074 1 μM): blocked by FGFR1 inhibition
- FGF1-induced suppression of lipolysis under PDE3B inhibition ([3]; FGF1 100 ng/ml with PDE3 inhibitors (cilostamide or quazinone 10 μM)): did not impair
- anti-lipolytic activity of FGF1 with selective inhibitors of PDE4 ([3]; FGF1 100 ng/ml with roflumilast 2 μM or cilomulast 10 μM): blocked by selective inhibitors of PDE4
- isoproterenol-induced lipolysis ([3]; dose response of FGF1, ISO 100 nM, 4 h): dose-dependently suppressed isoproterenol-induced lipolysis
- hepatic β-oxidation [4]: absence of any change

Reference: patent publication US20250082781A1, “METHODS OF LOWERING BLOOD GLUCOSE AND TREATING TYPE 2 DIABETES BY ACTIVATION OF PDE4D3” (Salk Institute for Biological Studies, priority 2021, published 2025)
